Laboratory results as given in PubChem BioAssay AID1918943 (Molecular Pharmacology Branch, DTP, NCI, 2023).
Where “and” joins values, the source holds several entries; their conditions need not be identical. Equal entries are not always repeated. Values belong to the compound of their own block, whether it stands above or below them.

Tested on: 855422-203-R-J1-PDC complex spheroid viability
Assay: Anticancer human tumor 855422-203-R-J1-PDC patient-derived bladder carcinoma cell line growth inhibition
Settings: for viability, T/C: stronger effect = lower value
How it was run: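 Drug combinations with the LSD1 inhibitor iadademstat tested on tumor cells co-cultured as spheroids with endothelial cells and mesenchymal stem cells. Concentrations descended in half-log increments from clinical Cmax or 10 microM.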

[1] = curve of first compound, second compound 0.1 µM
[2] = curve of first compound, second compound 0.316 µM
[3] = curve of first compound, second compound 1 µM
[4] = curve of first compound, second compound 3.16 µM
[5] = curve of first compound, second compound 10 µM
[6] = second compound 0.1 µM, first compound 0.00316 µM
[7] = second compound 0.1 µM, first compound 0.01 µM
[8] = second compound 0.1 µM, first compound 0.0316 µM
[9] = second compound 0.1 µM, first compound 0.1 µM
[10] = second compound 0.1 µM, first compound 0.316 µM
[11] = second compound 0.1 µM, first compound 1 µM
[12] = second compound 0.316 µM, first compound 0.00316 µM
[13] = second compound 0.316 µM, first compound 0.01 µM
[14] = second compound 0.316 µM, first compound 0.0316 µM
[15] = second compound 0.316 µM, first compound 0.1 µM
[16] = second compound 0.316 µM, first compound 0.316 µM
[17] = second compound 0.316 µM, first compound 1 µM
[18] = second compound 1 µM, first compound 0.00316 µM
[19] = second compound 1 µM, first compound 0.01 µM
[20] = second compound 1 µM, first compound 0.0316 µM
[21] = second compound 1 µM, first compound 0.1 µM
[22] = second compound 1 µM, first compound 0.316 µM
[23] = second compound 1 µM, first compound 1 µM
[24] = second compound 3.16 µM, first compound 0.00316 µM
[25] = second compound 3.16 µM, first compound 0.01 µM
[26] = second compound 3.16 µM, first compound 0.0316 µM
[27] = second compound 3.16 µM, first compound 0.1 µM
[28] = second compound 3.16 µM, first compound 0.316 µM
[29] = second compound 3.16 µM, first compound 1 µM
[30] = second compound 10 µM, first compound 0.00316 µM
[31] = second compound 10 µM, first compound 0.01 µM
[32] = second compound 10 µM, first compound 0.0316 µM
[33] = second compound 10 µM, first compound 0.1 µM
[34] = second compound 10 µM, first compound 0.316 µM
[35] = second compound 10 µM, first compound 1 µM
[36] = second compound 0.1 µM, first compound 3.16 µM
[37] = second compound 0.1 µM, first compound 10 µM
[38] = second compound 0.316 µM, first compound 3.16 µM
[39] = second compound 0.316 µM, first compound 10 µM
[40] = second compound 1 µM, first compound 3.16 µM
[41] = second compound 1 µM, first compound 10 µM
[42] = second compound 3.16 µM, first compound 3.16 µM
[43] = second compound 3.16 µM, first compound 10 µM
[44] = second compound 10 µM, first compound 3.16 µM
[45] = second compound 10 µM, first compound 10 µM
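Note: drug exposure lasted 7 days starting on day 3 after seeding.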
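Throughout, for viability, T/C: luminescence viability as percent of DMSO vehicle wells = 100%.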

Structure (SMILES): CC1COCCN1c1cc(-c2ccnn2C)c2ccnc(-c3ccn[nH]3)c2n1 (centres undefined) + NC1CC1c1ccc(-c2cccc(O)c2)cc1
- IC50 [1]: 131 nM
- IC50 [2]: 102 nM
- IC50 [3]: 94.7 nM
- IC50 [4]: 106 nM
- IC50 [5]: 77.5 nM
- viability, T/C [6]: 111%
- viability, T/C [7]: 101%
- viability, T/C [8]: 100%
- viability, T/C [9]: 54.5%
- viability, T/C [10]: 34.8%
- viability, T/C [11]: 35.5%
- viability, T/C [12]: 102%
- viability, T/C [13]: 93%
- viability, T/C [14]: 99.7%
- viability, T/C [15]: 50.2%
- viability, T/C [16]: 35%
- viability, T/C [17]: 31%
- viability, T/C [18]: 94.7%
- viability, T/C [19]: 97.8%
- viability, T/C [20]: 89%
- viability, T/C [21]: 48.3%
- viability, T/C [22]: 30.8%
- viability, T/C [23]: 33.9%
- viability, T/C [24]: 91.8%
- viability, T/C [25]: 99.5%
- viability, T/C [26]: 94.7%
- viability, T/C [27]: 51%
- viability, T/C [28]: 30.1%
- viability, T/C [29]: 29.5%
- viability, T/C [30]: 90.7%
- viability, T/C [31]: 90.5%
- viability, T/C [32]: 80.9%
- viability, T/C [33]: 41.2%
- viability, T/C [34]: 27.1%
- viability, T/C [35]: 26.1%

- IC50 (curve of compound): 5.5 nM and 4.42 nM
Structure (SMILES): Nc1ccn(C2OC(CO)C(O)C2(F)F)c(=O)n1 (centres undefined)
- viability, T/C (compound 0.000949 µM): 90.2% and 96.5%
- viability, T/C (compound 0.003 µM): 59.8% and 55%
- viability, T/C (compound 0.00949 µM): 37.2% and 35.9%
- viability, T/C (compound 0.03 µM): 36.1% and 29.9%
- viability, T/C (compound 0.0949 µM): 29.3% and 22%
- viability, T/C (compound 0.3 µM): 19.9% and 16.3%

- IC50 (curve of compound): 91 nM and 97.7 nM
Structure (SMILES): CC1COCCN1c1cc(-c2ccnn2C)c2ccnc(-c3ccn[nH]3)c2n1 (centres undefined)
- viability, T/C (compound 0.00316 µM): 98.3% and 96.7%
- viability, T/C (compound 0.01 µM): 90.6% and 99.5%
- viability, T/C (compound 0.0316 µM): 90.2% and 105%
- viability, T/C (compound 0.1 µM): 46% and 48.9%
- viability, T/C (compound 0.316 µM): 32.3% and 26%
- viability, T/C (compound 1 µM): 25.3% and 22.9%

Structure (SMILES): COc1ccc([C@@H](O)c2cc(-c3ncnc4cc(N5CCOCC5)ccc34)c(F)cc2Cl)nn1 + NC1CC1c1ccc(-c2cccc(O)c2)cc1
- IC50 [1]: 5200 nM
- IC50 [2]: 4860 nM
- IC50 [3]: 4320 nM
- IC50 [4]: 3560 nM
- IC50 [5]: 2740 nM
- viability, T/C [8]: 86.7%
- viability, T/C [9]: 90.9%
- viability, T/C [10]: 84.9%
- viability, T/C [11]: 77.7%
- viability, T/C [36]: 62.1%
- viability, T/C [37]: 34.4%
- viability, T/C [14]: 94.5%
- viability, T/C [15]: 88.2%
- viability, T/C [16]: 90.4%
- viability, T/C [17]: 80.2%
- viability, T/C [38]: 57.9%
- viability, T/C [39]: 36.7%
- viability, T/C [20]: 84.4%
- viability, T/C [21]: 88.8%
- viability, T/C [22]: 79.8%
- viability, T/C [23]: 75.2%
- viability, T/C [40]: 54%
- viability, T/C [41]: 38.2%
- viability, T/C [26]: 88.6%
- viability, T/C [27]: 93.9%
- viability, T/C [28]: 77.3%
- viability, T/C [29]: 69.8%
- viability, T/C [42]: 51.8%
- viability, T/C [43]: 35.1%
- viability, T/C [32]: 83.3%
- viability, T/C [33]: 77.6%
- viability, T/C [34]: 75.2%
- viability, T/C [35]: 71.3%
- viability, T/C [44]: 46.6%
- viability, T/C [45]: 29.9%

Structure (SMILES): CC(C)c1c(-c2ccccc2)nc2c(C#N)c[nH]n2c1=O + NC1CCC(NC2CC2c2ccccc2)CC1
- IC50 [1]: > 10000 nM
- IC50 [2]: > 10000 nM
- IC50 [3]: > 10000 nM
- IC50 [4]: > 10000 nM
- IC50 [5]: > 10000 nM
- viability, T/C [8]: 82.4%
- viability, T/C [9]: 88%
- viability, T/C [10]: 92.9%
- viability, T/C [11]: 87.7%
- viability, T/C [36]: 85.3%
- viability, T/C [37]: 74.7%
- viability, T/C [14]: 93.2%
- viability, T/C [15]: 85.3%
- viability, T/C [16]: 93.4%
- viability, T/C [17]: 83.3%
- viability, T/C [38]: 77.1%
- viability, T/C [39]: 74%
- viability, T/C [20]: 88.6%
- viability, T/C [21]: 92.2%
- viability, T/C [22]: 85.9%
- viability, T/C [23]: 86.7%
- viability, T/C [40]: 80.1%
- viability, T/C [41]: 75.3%
- viability, T/C [26]: 89.1%
- viability, T/C [27]: 80.4%
- viability, T/C [28]: 81.1%
- viability, T/C [29]: 77.1%
- viability, T/C [42]: 79.9%
- viability, T/C [43]: 80.2%
- viability, T/C [32]: 82.9%
- viability, T/C [33]: 91.7%
- viability, T/C [34]: 84.4%
- viability, T/C [35]: 74.6%
- viability, T/C [44]: 69.6%
- viability, T/C [45]: 73.4%

Structure (SMILES): CC[C@@]1(O)C(=O)OCc2c1cc1n(c2=O)Cc2cc3c(CN(C)C)c(O)ccc3nc2-1 + NC1CC1c1ccc(-c2cccc(O)c2)cc1
- IC50 [1]: 8.59 nM
- IC50 [2]: 7.94 nM
- IC50 [3]: 7.85 nM
- IC50 [4]: 6.85 nM
- IC50 [5]: 6.35 nM
- viability, T/C (second compound 0.1 µM, first compound 0.000316 µM): 97.8%
- viability, T/C (second compound 0.1 µM, first compound 0.001 µM): 102%
- viability, T/C [6]: 98.1%
- viability, T/C [7]: 42.7%
- viability, T/C [8]: 21.8%
- viability, T/C [9]: 19.4%
- viability, T/C (second compound 0.316 µM, first compound 0.000316 µM): 98.9%
- viability, T/C (second compound 0.316 µM, first compound 0.001 µM): 102%
- viability, T/C [12]: 92.8%
- viability, T/C [13]: 39.1%
- viability, T/C [14]: 22.8%
- viability, T/C [15]: 19.4%
- viability, T/C (second compound 1 µM, first compound 0.000316 µM): 90.5%
- viability, T/C (second compound 1 µM, first compound 0.001 µM): 94.6%
- viability, T/C [18]: 84.8%
- viability, T/C [19]: 40.5%
- viability, T/C [20]: 22.8%
- viability, T/C [21]: 18.8%
- viability, T/C (second compound 3.16 µM, first compound 0.000316 µM): 85.7%
- viability, T/C (second compound 3.16 µM, first compound 0.001 µM): 90.3%
- viability, T/C [24]: 87.2%
- viability, T/C [25]: 31.8%
- viability, T/C [26]: 20.9%
- viability, T/C [27]: 18.6%
- viability, T/C (second compound 10 µM, first compound 0.000316 µM): 81.5%
- viability, T/C (second compound 10 µM, first compound 0.001 µM): 97.3%
- viability, T/C [30]: 82.2%
- viability, T/C [31]: 28.9%
- viability, T/C [32]: 21.5%
- viability, T/C [33]: 16.3%
